Source: EP0917878A1, “REMEDIES FOR HEPATITIS” (TORAY INDUSTRIES, INC., priority 1997, dated 1998)

Target: T1, α4·IgG heavy chain-β1·IgG heavy chain chimeric protein heterodimer complex (chimeric protein of VLA-4 and IgG heavy chain) (Homo sapiens, UniProt P05556+P13612)
T1 construct: a chimeric molecule being composed with the extracellular region of integrin α4 and an immunoglobulin heavy chain; a chimeric molecule being composed with the extracellular region of integrin β1 and an immunoglobulin heavy chain; made in house; unpurified culture supernatant used in the assay
T1 sequence (P13612 35-977 limits assumed, change not shown): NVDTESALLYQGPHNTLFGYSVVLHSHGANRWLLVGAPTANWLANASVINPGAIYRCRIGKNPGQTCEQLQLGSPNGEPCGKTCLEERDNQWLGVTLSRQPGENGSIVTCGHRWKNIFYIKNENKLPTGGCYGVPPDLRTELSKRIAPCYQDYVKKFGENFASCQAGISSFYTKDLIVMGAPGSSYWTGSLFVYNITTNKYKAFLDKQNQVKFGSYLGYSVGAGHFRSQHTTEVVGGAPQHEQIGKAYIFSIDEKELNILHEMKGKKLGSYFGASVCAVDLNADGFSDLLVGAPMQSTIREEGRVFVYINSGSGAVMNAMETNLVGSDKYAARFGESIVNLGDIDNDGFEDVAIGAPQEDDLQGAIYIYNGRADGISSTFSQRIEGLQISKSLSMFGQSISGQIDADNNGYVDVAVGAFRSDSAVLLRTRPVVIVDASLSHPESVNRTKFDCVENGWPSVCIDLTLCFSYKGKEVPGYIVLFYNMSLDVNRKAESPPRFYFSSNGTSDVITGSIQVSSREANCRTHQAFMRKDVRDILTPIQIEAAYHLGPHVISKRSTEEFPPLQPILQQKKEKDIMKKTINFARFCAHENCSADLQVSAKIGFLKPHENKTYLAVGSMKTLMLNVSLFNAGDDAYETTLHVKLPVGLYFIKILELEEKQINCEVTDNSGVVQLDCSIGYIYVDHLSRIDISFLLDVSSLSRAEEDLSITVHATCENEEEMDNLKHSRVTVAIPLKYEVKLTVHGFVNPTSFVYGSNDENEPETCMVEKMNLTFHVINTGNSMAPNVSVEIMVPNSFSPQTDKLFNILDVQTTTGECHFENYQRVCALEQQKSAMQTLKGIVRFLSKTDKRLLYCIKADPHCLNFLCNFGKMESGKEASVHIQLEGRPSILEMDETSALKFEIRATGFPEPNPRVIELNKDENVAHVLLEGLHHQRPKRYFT
T1 sequence (P05556 21-728 limits assumed, change not shown): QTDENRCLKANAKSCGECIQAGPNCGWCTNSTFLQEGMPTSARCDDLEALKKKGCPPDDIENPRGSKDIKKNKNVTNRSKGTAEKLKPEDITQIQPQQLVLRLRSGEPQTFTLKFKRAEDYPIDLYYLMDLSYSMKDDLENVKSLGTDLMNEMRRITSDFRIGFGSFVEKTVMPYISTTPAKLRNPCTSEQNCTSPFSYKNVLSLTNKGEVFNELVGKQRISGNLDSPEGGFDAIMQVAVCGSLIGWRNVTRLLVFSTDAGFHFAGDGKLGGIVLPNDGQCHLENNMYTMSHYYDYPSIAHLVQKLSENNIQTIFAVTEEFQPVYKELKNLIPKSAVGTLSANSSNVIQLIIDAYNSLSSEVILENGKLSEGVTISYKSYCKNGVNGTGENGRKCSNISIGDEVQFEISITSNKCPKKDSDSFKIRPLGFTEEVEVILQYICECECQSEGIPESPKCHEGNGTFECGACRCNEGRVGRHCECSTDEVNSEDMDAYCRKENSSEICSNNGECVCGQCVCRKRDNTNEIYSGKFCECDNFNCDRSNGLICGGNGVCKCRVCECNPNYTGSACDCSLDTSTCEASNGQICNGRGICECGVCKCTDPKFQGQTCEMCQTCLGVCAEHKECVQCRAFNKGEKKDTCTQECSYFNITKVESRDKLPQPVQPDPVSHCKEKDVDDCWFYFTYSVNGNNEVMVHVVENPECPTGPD
T1 sequence (P01857 99-330 partner limits assumed): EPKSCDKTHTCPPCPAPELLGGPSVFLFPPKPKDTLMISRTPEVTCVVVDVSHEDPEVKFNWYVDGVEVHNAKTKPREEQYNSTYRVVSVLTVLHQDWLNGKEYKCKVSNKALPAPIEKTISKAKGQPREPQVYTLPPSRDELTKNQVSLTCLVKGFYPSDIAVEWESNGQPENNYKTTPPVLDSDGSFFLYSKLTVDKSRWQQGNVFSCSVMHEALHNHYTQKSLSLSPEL
Test: binding of α4·IgG heavy chain-β1·IgG heavy chain chimeric protein heterodimer complex to solid phase CS-1-IgG (absorbance at 490 nm)
Conditions: for inhibition at 50 µg/mL: Concentration 50 µg/ml, read-out: Inhibition rate (%)
Method: At first, according to the said report (Humphries, M. J. et al., J. Biol. Chem., 262, 6886-6892 (1987)), the peptide fragment of sequence No. 13 (CS-1 peptide) was bound to rabbit IgG (Sigma), to prepare CS-1-IgG. The CS-1-IgG was diluted by PBS(-), and supplied in a 96-well immunoplate (NUNC) by 100 µl/well, and allowed to stand at 4°C for 16 hours, to be formed as a solid phase on the plate.
After completion of standing, the surface of the plate was washed with PBS(-) twice and treated with 1% BSA(heat-denatured at 80°C for 10 minutes)-PBS solution (300 µl/well) at 4°C for 3 hours to block the nonspecific reaction. Then, the solid phase CS-1-IgG and the CHO culture supernatant (100 µl) containing α4·IgG heavy chain-β1·IgG heavy chain chimeric protein heterodimer complex were reacted with each other at 30°C for 3 hours. The non-bound α4·IgG heavy chain-β1·IgG heavy chain chimeric protein heterodimer complex was removed by washing with 0.1% BSA-containing TBS buffer (150 mM NaCl, 25 mM Tris-HCl, 1 mM MnCl2, pH 7.4) twice, and the bound α4·IgG heavy chain-β1·IgG heavy chain chimeric protein heterodimer complex was detected by biotin labeled anti-human IgG antibody (Vector) as the primary antibody and avidin labeled horseradish peroxidase (Sigma) used as the secondary anti body. The surface of the plate was washed with the TBS buffer. Orthophenylenediamine was added as a substrate to it for color development, and the absorbance at 490 nm were measured.
The all peptides were synthesized by a peptide synthesizer. The peptide and 100 µl of CHO cultured supernatant solution containing α4·IgG heavy chain-β1·IgG heavy chain chimeric protein heterodimer complex were mixed at room temperature for 20 minutes, and the binding to CS-1-IgG was determined according to the method in Example 4.
Reagents and the compounds stated in literature were picked up at random, adjusted to a final concentration of 50 µg/ml, and added to the binding assay system of Example 4. Compounds showing inhibitory activity were obtained. […]

Compound	inhibition of binding to CS-1 peptide (5 mM, Fig. 1)	inhibition at 50 µg/mL [%]
O=C(O)CN(CCN(CC(=O)O)CC(=O)O)CC(=O)O [EDTA]	almost perfectly inhibited	–
C[C@H](CCC(=O)O)[C@H]1CC[C@H]2[C@@H]3C(=O)C[C@@H]4CC(=O)CC[C@]4(C)[C@H]3CC(=O)[C@]12C [Dehydrocholic acid]	–	39.5
O=c1ccc2ccc(O)cc2o1 [7-Hydroxycoumarin]	–	87.5
